We go through 20 compounds from ChEMBL document CHEMBL4819077, “Design, synthesis, and biological evaluation of diosgenin-indole derivatives as dual-functional agents for the treatment of Alzheimer's disease” (Eur J Med Chem, 2021).

The test system of data set [1] is SH-SY5Y. Briefly: Neuroprotection against H202-induced oxidative stress in human SH-SY5Y cells assessed as cell protection at 10 uM preincubated for 2 hr before H202 challenge and measured after 24 hrs by MTT assay. The data set is classed as functional. Background: Tetrazolium dyes change colour on reduction, which living cells bring about.
Data set [2] deals with SH-SY5Y. Briefly: Neuroprotection against 6-OHDA-induced oxidative stress in human SH-SY5Y cells assessed as cell protection at 10 uM preincubated for 2 hr before 6-OHDA challenge and measured after 24 hrs by MTT assay. It is filed as functional. The note with it: time 26 hrs.
The subject of data set [3] is SH-SY5Y. Briefly: Neuroprotection against Abeta-induced oxidative stress in human SH-SY5Y cells assessed as cell protection at 10 uM incubated for 2 hr before Abeta(1-42) challenge and measured after 24 hrs by MTT assay. The data set is classed as functional. The note with it: time 26 hrs.
Data set [4] has as its system SH-SY5Y. Briefly: Cytotoxicity against human SH-SY5Y cells assessed as reduction in cell viability measured after 24 hrs by MTT assay. The data set is classed as cell-based.
Data set [5] relates to Mus musculus. Briefly: Improvement in learning and spatial memory in icv infused amyloid beta (1 to 42)-induced ICR mouse model of Alzheimer's disease assessed as improved target quadrant exploration time at to 2 mg/kg, po administered daily for 7 days starting from 7 days post surgery by Morris water maze test. It is filed as functional, organism-based. The note with it: time 7.0 day.

For data set [6], the system named is Mus musculus. Briefly: Neuroprotection against icv infused amyloid beta (1 to 42)-induced ICR mouse model of Alzheimer's disease assessed as rescue of pyknotic nucleus in hippocampal at to 2 mg/kg, po administered daily for 7 days by HE staining. It is filed as functional, organism-based. As to conditions: time 7.0 day.
The subject of data set [7] is Mus musculus. Briefly: Neuroprotection against icv infused amyloid beta (1 to 42)-induced ICR mouse model of Alzheimer's disease assessed as rescue of decrease neuronal cells in hippocampal at to 2 mg/kg, po administered daily for 7 days by HE staining. It is filed as functional, organism-based. The note with it: time 7.0 day.

The source made the active and inactive calls. No cut-off for these calls is given here.

Consider `C[C@@H]1CC[C@@]2(OC1)O[C@H]1C[C@H]3[C@@H]4CC=C5C[C@@H](O)CC[C@]5(C)[C@H]4CC[C@]3(C)[C@H]1[C@@H]2C` [DISOGENIN], for which the Activity in data set [1] is listed as 9.2%; in data set [2], 14.2%; in data set [3], 7.4%.
As for `Cc1ccc2[nH]cc(CC(=O)Oc3ccc4c(c3)CC[C@@H]3[C@@H]4CC[C@]4(C)[C@@H]5[C@H](C[C@@H]34)O[C@]3(CC[C@@H](C)CO3)[C@H]5C)c2c1`, the figures for the Activity entry in data set [4], in data set [1] and in data set [2] were “Non-Toxic”, 14.6% and 18.8%, respectively.
As to `Cc1ccc2[nH]cc(CCNC(=O)Oc3ccc4c(c3)CC[C@@H]3[C@@H]4CC[C@]4(C)[C@@H]5[C@H](C[C@@H]34)O[C@]3(CC[C@@H](C)CO3)[C@H]5C)c2c1`, the Activity entry is reported as “Non-Toxic” in data set [4], 49.1% in data set [1], 27.7% in data set [2] and 34.2% in data set [3].
The like results for `C[C@@H]1CC[C@@]2(OC1)O[C@H]1C[C@H]3[C@@H]4CCc5cc(OC(=O)Cc6c[nH]c7ccccc67)ccc5[C@H]4CC[C@]3(C)[C@H]1[C@@H]2C` were, in that order, “Non-Toxic”, 18.4%, 61.1% and 20.6%.
The like results for `C[C@@H]1CC[C@@]2(OC1)O[C@H]1C[C@H]3[C@@H]4CCc5cc(OC(=O)NCCc6c[nH]c7ccc(F)cc67)ccc5[C@H]4CC[C@]3(C)[C@H]1[C@@H]2C` were, in that order, “Non-Toxic”, 43.4%, 47.7% and 44.8%.
Regarding `C[C@@H]1CC[C@@]2(OC1)O[C@H]1C[C@H]3[C@@H]4CCc5cc(OC(=O)Cc6c[nH]c7cc(Cl)ccc67)ccc5[C@H]4CC[C@]3(C)[C@H]1[C@@H]2C`, the Activity result in data set [4] is “Non-Toxic”; in data set [1], 13.4%; in data set [2], 10.9%.
As for `C[C@@H]1CC[C@@]2(OC1)O[C@H]1C[C@H]3[C@@H]4CCc5cc(OC(=O)NCCc6c[nH]c7ccccc67)ccc5[C@H]4CC[C@]3(C)[C@H]1[C@@H]2C`, the Activity entry is reported as “Non-Toxic” in data set [4], 21.5% in data set [1], 40.6% in data set [2] and 42.7% in data set [3].
With `C[C@@H]1CC[C@@]2(OC1)O[C@H]1C[C@H]3[C@@H]4CCc5cc(OC(=O)Cc6c[nH]c7ccc(Br)cc67)ccc5[C@H]4CC[C@]3(C)[C@H]1[C@@H]2C`, the Activity entry is given as “Non-Toxic” in data set [4], 15.8% in data set [1] and 4.2% in data set [2].
For the compound `C[C@@H]1CC[C@@]2(OC1)O[C@H]1C[C@H]3[C@@H]4CCc5cc(OC(=O)NCCc6c[nH]c7cc(F)ccc67)ccc5[C@H]4CC[C@]3(C)[C@H]1[C@@H]2C`, the Activity entry in data set [4] is given as “Non-Toxic”; in data set [1], 35.8%; in data set [2], 40.2%; in data set [3], 42.5%.
For the compound `COc1ccc2c(CCNC(=O)Oc3ccc4c(c3)CC[C@@H]3[C@@H]4CC[C@]4(C)[C@@H]5[C@H](C[C@@H]34)O[C@]3(CC[C@@H](C)CO3)[C@H]5C)c[nH]c2c1`, the Activity result is given as “Non-Toxic” in data set [4], 50% in data set [1], 47.7% in data set [2] and 43.7% in data set [3].
The matching figures for `COc1ccc2[nH]cc(CC(C)NC(=O)Oc3ccc4c(c3)CC[C@@H]3[C@@H]4CC[C@]4(C)[C@@H]5[C@H](C[C@@H]34)O[C@]3(CC[C@@H](C)CO3)[C@H]5C)c2c1` (some centres not stated): “Non-Toxic”, 43.6%, 25.8% and 37.2%.
Regarding `COc1cc2c(cc1OC)C(=O)C(CC1CCN(Cc3ccccc3)CC1)C2` (configuration not stated), the result in data set [5], in data set [6] and in data set [7] was Active.
On to `C[C@@H]1CC[C@@]2(OC1)O[C@H]1C[C@H]3[C@@H]4CCc5cc(OC(=O)Cc6c[nH]c7ccc(F)cc67)ccc5[C@H]4CC[C@]3(C)[C@H]1[C@@H]2C`, for which the figures for the Activity entry in data set [4], in data set [1] and in data set [2] were “Non-Toxic”, 13.3% and 20.2%, respectively.
On to `COc1ccc2c(CC(=O)Oc3ccc4c(c3)CC[C@@H]3[C@@H]4CC[C@]4(C)[C@@H]5[C@H](C[C@@H]34)O[C@]3(CC[C@@H](C)CO3)[C@H]5C)c[nH]c2c1`, for which the Activity result in data set [4] was “Toxic”.
Turning to `C[C@@H]1CC[C@@]2(OC1)O[C@H]1C[C@H]3[C@@H]4CCc5cc(OC(=O)NCCc6c[nH]c7ccc(Br)cc67)ccc5[C@H]4CC[C@]3(C)[C@H]1[C@@H]2C`, the Activity result is “Non-Toxic” in data set [4], 29.6% in data set [1] and 27.9% in data set [2].
The matching figures for `Cc1[nH]c2ccccc2c1CCNC(=O)Oc1ccc2c(c1)CC[C@@H]1[C@@H]2CC[C@]2(C)[C@@H]3[C@H](C[C@@H]12)O[C@]1(CC[C@@H](C)CO1)[C@H]3C`: “Non-Toxic”, 31.1% and 34.4%.
For the compound `COc1ccc2[nH]cc(CC(=O)Oc3ccc4c(c3)CC[C@@H]3[C@@H]4CC[C@]4(C)[C@@H]5[C@H](C[C@@H]34)O[C@]3(CC[C@@H](C)CO3)[C@H]5C)c2c1`, the Activity result is “Non-Toxic” in data set [4], 26.9% in data set [1], 57.4% in data set [2] and 30.4% in data set [3].
Take `COc1ccc2[nH]c(C)c(CC(=O)Oc3ccc4c(c3)CC[C@@H]3[C@@H]4CC[C@]4(C)[C@@H]5[C@H](C[C@@H]34)O[C@]3(CC[C@@H](C)CO3)[C@H]5C)c2c1`: the Activity result in data set [4] is recorded as “Non-Toxic”; in data set [1], 37.7%; in data set [2], 42.3%; in data set [3], 26.9%.
As to `Cc1[nH]c2ccccc2c1CC(=O)Oc1ccc2c(c1)CC[C@@H]1[C@@H]2CC[C@]2(C)[C@@H]3[C@H](C[C@@H]12)O[C@]1(CC[C@@H](C)CO1)[C@H]3C`, the Activity entry in data set [4] is on record as “Non-Toxic”; in data set [1], 22.7%; in data set [2] it was 30.5%.
As to `C[C@@H]1CC[C@@]2(OC1)O[C@H]1C[C@H]3[C@@H]4CCc5cc(OC(=O)NCCc6c[nH]c7ccc(Cl)cc67)ccc5[C@H]4CC[C@]3(C)[C@H]1[C@@H]2C`, the Activity result is reported as “Non-Toxic” in data set [4], 38.6% in data set [1] and 15.8% in data set [2].
